In the supplement of paper PMC5412046:

These compounds were tested on SB.msgc-1 (assay: AC50 for growth inhibition (viability) (log10 M); higher = less potent). Settings: SB.msgc-1 (sporadic gastric cancer).
In short: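 In 1536-well plates, each well held 500 patient-derived gastric cancer cells (hereditary or sporadic) in 5 μL medium. Compound in DMSO, 23 nL per well, was pinned in 11 threefold dilutions starting at a final 46 μM. Following 48 h of exposure, cells had CellTiter-Glo for 30 min at room temperature before ViewLux luminescence reading. Only high-quality curve classes from four-parameter fits of DMSO-normalised viability gave the log half-maximal activity concentration.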

Going from `COCCOC(=O)C/1=C(C)/NC/2=C(C1C3=CC=CC(=C3)O)/C(=O)CC(C2)C4=C(OC)C=CC=C4` (stereo not drawn) [HPI-1] to `COC(=O)Nc1nc2cc(C(=O)c3ccccc3)ccc2[nH]1` [Mebendazole], the “AC50 for growth inhibition (log10 M)” value falls from -4.73 to -5.48.

Compared with `Nc1nc2ccc(OC(F)(F)F)cc2s1` [Riluzole], `CCCOc1ccc2[nH]c(NC(=O)OC)nc2c1` [Oxibendazole] is lower in “AC50 for growth inhibition (log10 M)” value: -4.73 for the first, -7.83 for the second.

Going from `CC[S+](=O)([O-])c1cccc(-c2cc(C(=O)NC3CCN(C)CC3)c(C)c3[nH]c4ncc(C)cc4c23)c1` [TAK-901] to `Cc1ccc(NC(=O)c2ccc(CN3CCN(C)CC3)cc2)cc1Nc1nc(-c2cccnc2)cs1` [Masitinib], the “AC50 for growth inhibition (log10 M)” value rises from -5.33 to -4.93.

Compared with `CCCCCN(CCC12CC3CC(CC(C3)C1)C2)C(=O)NCCCc1ccncc1` [DE-096], `O=C(NCc1ccncc1)C12C[C@H]3C[C@@H](C1)CC(c1ccc(Cl)cc1)(C3)C2` is lower in “AC50 for growth inhibition (log10 M)” value: -4.73 for the first, -4.98 for the second.

Compared with `CC(C)(C)c1cc(C(=O)O)c(NC(=O)Nc2ccc3[nH]ncc3c2)s1` [S6K-18], `Cc1cc(NC(=O)Nc2ccc(N(C)C)cc2)c2cc(F)cc(F)c2n1` is lower in “AC50 for growth inhibition (log10 M)” value: -4.88 for the first, -5.08 for the second.

First: CCCCc1ccc2[nH]c(NC(=O)OC)nc2c1 [Parbendazole]
Second: CCCNC(=O)Nc1ccc(Oc2ncnc3cc(OC)c(OC)cc23)cc1Cl [KRN-633]
The “AC50 for growth inhibition (log10 M)” value of the first is lower: -6.83 for the first, -4.68 for the second.

`C[S+](=O)([O-])c1cccc(CNc2nc(Nc3ccc4c(c3)CCC(=O)N4)ncc2C(F)(F)F)c1` and `Cc1ccc(Nc2cc(-c3cccc(N4C(=O)c5ccccc5C4=O)c3)ncn2)cc1N[S+](C)(=O)[O-]` [CDK9 inhibitor] are within 0.2 log units of each other in “AC50 for growth inhibition (log10 M)” value: -4.78 for the first, -4.63 for the second.

Compared with `O=C(N[C@@H](c1ccccc1)[C@@H]1CCCCN1)c1cccc(C(F)(F)F)c1Cl`, `O=C(Nc1ccccc1Br)N[C@@H]1CCN(c2ccc(C(F)(F)F)cn2)C1` is higher in “AC50 for growth inhibition (log10 M)” value: -5.88 for the first, -4.73 for the second.

`Cc1cccc(C)c1OCC(=O)N[C@@H](Cc1ccccc1)[C@@H](O)C[C@H](Cc1ccccc1)NC(=O)[C@H](C(C)C)N1CCCNC1=O` [Lopinavir] and `Cc1ccccc1C(C(=O)NC1CCCC1)N(C(=O)Cn1cnc2ccccc21)c1cccc(F)c1` (stereo not drawn) are within 0.2 log units of each other in “AC50 for growth inhibition (log10 M)” value: -4.73 for the first, -4.63 for the second.

First: Cc1nc(N)sc1-c1ccnc(Nc2ccc(N3CCOCC3)cc2)n1 [CYC-116]
Second: Cc1c(CN2CCN([S+](C)(=O)[O-])CC2)sc2c(N3CCOCC3)nc(-c3cnc(N)nc3)nc12 [GNE-477]
The “AC50 for growth inhibition (log10 M)” value of the first is higher: -4.63 for the first, -7.68 for the second.

`CC[C@H](CO)Nc1nc(NCc2ccccc2)c2ncn(C(C)C)c2n1` [Seliciclib] and `CCOC(=O)c1c(CSc2ccccc2)n(C)c2cc(Br)c(O)c(CN(C)C)c12` [Arbidol] are within 0.2 log units of each other in “AC50 for growth inhibition (log10 M)” value: -4.68 for the first, -4.63 for the second.

`CCNC(=O)C[C@H]1/N=C(/C2=CC=C(Cl)C=C2)C3=CC(=CC=C3[N]4C(=NN=C14)C)OC` and `NC(=O)c1nnn(Cc2cc(Cl)c(C(=O)c3ccc(Cl)cc3)c(Cl)c2)c1N` [Carboxyamidotriazole] are the same in “AC50 for growth inhibition (log10 M)” value: -5.03 for the first, -5.03 for the second.

First: Fc1ccc(Cl)cc1-c1nc(Nc2ccncc2)c2nccnc2n1 [SD-208]
Second: O=C(Nc1cc(Cl)cc2c1[nH]c1cnccc12)c1cccnc1 [PS-1145]
The “AC50 for growth inhibition (log10 M)” value of the first is lower: -4.93 for the first, -4.73 for the second.

`O=c1[nH]c2ccccc2n1C1CCN(Cc2ccc(-c3nc4cc5nc[nH]c5cc4nc3-c3ccccc3)cc2)CC1` [AKT inhibitor VIII] and `Cc1c(C)n(Cc2ccc(-c3ccccc3C(=O)O)cc2)c2ccc(C(=O)N[C@@H](C)c3ccc([N+](=O)[O-])cc3)cc12` [SR1664] are within 0.2 log units of each other in “AC50 for growth inhibition (log10 M)” value: -4.83 for the first, -4.68 for the second.

`CC(=O)O[C@@]1(CC[C@H]2[C@@H]3\C=C(C)/C4=C/C(=O)CC[C@]4(C)[C@H]3CC[C@]12C)C(C)=O` [Megestrol acetate] and `COc1cc2c(cc1O)CCC1C2CC[C@@]2(C)C1CC[C@@H]2O` (stereo partly drawn) [2-Methoxyestradiol] are within 0.2 log units of each other in “AC50 for growth inhibition (log10 M)” value: -5.23 for the first, -5.33 for the second.

Going from `CC(C)CC(=O)Nc1n[nH]c2c1CN(C(=O)C1CCN(C)CC1)C2(C)C` to `COc1cc(OC2CCN(C)CC2)ccc1Nc1ncc2c(n1)n(C1CCCC1)c(=O)n2C` [AZ-3146], the “AC50 for growth inhibition (log10 M)” value rises from -5.83 to -4.78.

First: Cn1cc(/C=C/C(=O)c2cccc(F)c2)cc1/C=C/C(=O)NO [MC-1568]
Second: COc1cc(/C=C/C(=O)CC(=O)/C=C/c2ccc(O)c(OC)c2)ccc1O [Curcumin]
The “AC50 for growth inhibition (log10 M)” value of the first is lower: -4.88 for the first, -4.37 for the second.

Going from `Cn1cnc2c(F)c(Nc3ccc(Br)cc3F)c(C(=O)NOCCO)cc21` [ARRY-162] to `C[C@@H]1CCO[C@H]2CN\3/C=C(/C(=O)NCC4=C(F)C=C(F)C=C4)C(=O)\C(=C3C(=O)N12)O` [Dolutegravir], the “AC50 for growth inhibition (log10 M)” value rises from -6.63 to -4.78.

First: Fc1ccc(CNc2ncnc3ccc(F)cc23)cc1 [Spautin-1]
Second: CC(C)c1ccc(Cn2ccc3c4c(N)nc(NC5CC5)nc4ccc32)cc1
The “AC50 for growth inhibition (log10 M)” value of the first is higher: -5.48 for the first, -5.78 for the second.

`CC(=O)N(C)c1cccc(-c2ccnc3c(C(=O)c4cccs4)cnn23)c1` [Indiplon] and `CNC(=O)c1ccccc1Sc1ccc2c(/C=C/c3ccccn3)n[nH]c2c1` [Axitinib] are the same in “AC50 for growth inhibition (log10 M)” value: -4.68 for the first, -4.68 for the second.

First: CC1COC2(CCN(CC2)C/3=N/C(=O)C4=CC(=CC(=C4S3)[N+]([O-])=O)C(F)(F)F)O1 (stereo not drawn)
Second: O=C(O)CCC1CCC(c2cc(F)ccc2F)([S+](=O)([O-])c2ccc(Cl)cc2)CC1 (stereo not drawn) [MK-0752]
The “AC50 for growth inhibition (log10 M)” value of the first is higher: -4.78 for the first, -4.98 for the second.

Compared with `CCCn1c(=O)c2[nH]c(-c3cnn(Cc4cccc(C(F)(F)F)c4)c3)nc2n(CC)c1=O` [CVT-6883], `CC(C)(C)C1=NC2=C([NH]1)C3=CC=C(F)C=C3C4=C2\C=C/NC4=O` [Merck 5] is lower in “AC50 for growth inhibition (log10 M)” value: -4.68 for the first, -5.33 for the second.

`C[C@@]1(C(=O)Nc2ccc(F)nc2)CCCN1c1nc(Nc2cc(C3CC3)[nH]n2)c2cccn2n1` and `Cc1cnc(C(=O)NCCc2ccc([S+](=O)([O-])NC(=O)NC3CCCCC3)cc2)cn1` [Glipizide] are within 0.2 log units of each other in “AC50 for growth inhibition (log10 M)” value: -4.73 for the first, -4.78 for the second.

`COc1cc([C@@H]2c3cc4c(cc3[C@@H](O[C@@H]3O[C@@H]5CO[C@@H](C)O[C@H]5[C@H](O)[C@H]3O)[C@H]3COC(=O)[C@H]23)OCO4)cc(OC)c1O` [Etoposide] and `C[C@@H]1C/C=C/C=C/C=C/C=C/[C@@H](O[C@@H]2O[C@H](C)[C@@H](O)[C@H](N)[C@@H]2O)C[C@@H]2O[C@](O)(C[C@@H](O)C[C@@H]3O[C@H]3/C=C/C(=O)O1)C[C@H](O)[C@H]2C(=O)O` [Natamycin] are within 0.2 log units of each other in “AC50 for growth inhibition (log10 M)” value: -5.33 for the first, -5.23 for the second.

Compared with `O=C(/C=C/c1cccnc1)NCCCCC1CCN(C(=O)c2ccccc2)CC1` [Daporinad], `O=C(O)[C@@H](c1ccc(OCc2ccc3ccccc3n2)cc1)C1CCCC1` [Veliflapon] is higher in “AC50 for growth inhibition (log10 M)” value: -6.08 for the first, -5.18 for the second.

`CC1CCN(c2cc(N3CCN(C)CC3)ccc2NC(=O)c2cc(C#N)c[nH]2)CC1` [c-FMS inhibitor] and `NC(=O)C1CCCc2c1[nH]c1ccc(Cl)cc21` (stereo not drawn) [EX-527] are within 0.2 log units of each other in “AC50 for growth inhibition (log10 M)” value: -4.68 for the first, -4.78 for the second.

`COCC1(CO)C(=O)C2CCN1CC2` (stereo not drawn) [APR-246] and `O=C1\C=C/C[C@@H]2[C@H]3CCCN4CCC[C@@H](CN12)[C@@H]34` [Sophocarpine] are within 0.2 log units of each other in “AC50 for growth inhibition (log10 M)” value: -4.88 for the first, -4.78 for the second.

`CN(C)Cc1ccc(-c2nc3cccc4c3n2CCNC4=O)cc1` and `OC1=C(Cl)C=C(N\C2=C(\C(=O)NC2=O)C3=C(C=CC=C3)[N+]([O-])=O)C=C1` are within 0.2 log units of each other in “AC50 for growth inhibition (log10 M)” value: -4.78 for the first, -4.88 for the second.

Going from `O=C(C[C@@H]1C/C=C\CCC(=O)O[C@H](c2ccccc2)CNC1=O)NCc1ccc(Cl)cc1` [Robotnikinin] to `O=[S+]([O-])(/N=C/c1c(O)ccc2ccccc12)c1cccs1`, the “AC50 for growth inhibition (log10 M)” value rises from -5.43 to -5.03.

Compared with `C[C@@H]1CC[C@H]2[C@@H](C)C(=O)O[C@@H]3O[C@@]4(C)CC[C@@H]1[C@]32OO4` [Artemisinin], `C=C1C(=O)OC2/C=C(/C)CC/C=C(/C)CCC12` (stereo not drawn) [Costunolide] is higher in “AC50 for growth inhibition (log10 M)” value: -6.93 for the first, -4.68 for the second.

Compared with `O=C(O)/C=C/c1ccc(O)c(O)c1` [Caffeic acid], `Clc1ccc(C(Cn2ccnc2)OCc2ccsc2Cl)c(Cl)c1` (stereo not drawn) [Tioconazole] is higher in “AC50 for growth inhibition (log10 M)” value: -4.88 for the first, -4.63 for the second.

For `Clc1ccc(C(c2ccc(Cl)cc2)[n+]2ccn(CC(OCc3ccc(Cl)cc3Cl)c3ccc(Cl)cc3Cl)c2)cc1` (stereo not drawn) [Calmidazolium chloride], the “AC50 for growth inhibition (log10 M)” value was -4.68.
